Measurements taken from PubChem BioAssay AID194 (DTP/NCI, 2004).
Values joined by “and” are separate entries in the source; they are usually repeats but may differ in a detail not shown here. Identical values can stand only once. Records with an inconclusive call do not appear.

System: BDF1 mice, B16 melanoma s.c., survival/tumor T/C
Assay: NCI In Vivo Anticancer Drug Screen. Data for tumor model B16 Melanoma (subcutaneous) in B6D2F1 (BDF1) mice
Method: The antitumor activity of compounds was measured in mice bearing transplantable tumors. Survival or tumor size were measured and the results are expressed as the measurement made in the treated group (T) divided by the measurement made in the vehicle treated control group (C). The tumor model used in this assay is B16 Melanoma (subcutaneous) in B6D2F1 (BDF1) mice

[1] = endpoint: median survival time, dose: 1.0 mg/kg/injection, schedule: Q01DX009 (ip), vehicle: saline, higher = longer survival

CC1=C(/C=C/C(C)=C/C=C/C(C)=C/CO)C(C)(C)CCC1
T/C (endpoint: median survival time, dose: 4.0 mg/kg/injection, schedule: Q01DX009 (ip), vehicle: saline with Tween-80, higher = longer survival): 102 % of control | T/C (endpoint: median survival time, dose: 8.0 mg/kg/injection, schedule: Q01DX009 (ip), vehicle: saline with Tween-80, higher = longer survival): 94 % of control | T/C (endpoint: median survival time, dose: 16.0 mg/kg/injection, schedule: Q01DX009 (ip), vehicle: saline with Tween-80, higher = longer survival): 101 % of control and 117 % of control | T/C (endpoint: median survival time, dose: 32.0 mg/kg/injection, schedule: Q01DX009 (ip), vehicle: saline with Tween-80, higher = longer survival): 100 % of control and 102 % of control | T/C (endpoint: median survival time, dose: 64.0 mg/kg/injection, schedule: Q01DX009 (ip), vehicle: saline with Tween-80, higher = longer survival): 92 % of control

C1CCC2[N-]CC3CCCCC3[N-]CC3CCCCC3[N-]CC3CCCCC3[N-]CC2C1.[Cu] (stereo not given)
T/C (endpoint: median survival time, dose: 5.12 mg/kg/injection, schedule: Q01DX005 (ip), vehicle: Klucel (hydroxypropylcellulose) (HPC), higher = longer survival): 98 % of control | T/C (endpoint: median survival time, dose: 6.4 mg/kg/injection, schedule: Q01DX005 (ip), vehicle: Klucel (hydroxypropylcellulose) (HPC), higher = longer survival): 95 % of control and 96 % of control and 102 % of control | T/C (endpoint: median survival time, dose: 8.0 mg/kg/injection, schedule: Q01DX001 (ip), vehicle: Klucel (hydroxypropylcellulose) (HPC), higher = longer survival): 93 % of control and 95 % of control and 106 % of control | T/C (endpoint: median survival time, dose: 8.0 mg/kg/injection, schedule: Q01DX005 (ip), vehicle: Klucel (hydroxypropylcellulose) (HPC), higher = longer survival): 96 % of control and 97 % of control and 98 % of control | T/C (endpoint: median survival time, dose: 10.0 mg/kg/injection, schedule: Q01DX001 (ip), vehicle: Klucel (hydroxypropylcellulose) (HPC), higher = longer survival): 95 % of control and 107 % of control and 109 % of control | T/C (endpoint: median survival time, dose: 12.5 mg/kg/injection, schedule: Q01DX001 (ip), vehicle: Klucel (hydroxypropylcellulose) (HPC), higher = longer survival): 93 % of control and 94 % of control and 119 % of control

CNNCc1ccc(C(=O)NC(C)C)cc1
T/C (endpoint: median survival time, dose: 40.0 mg/kg/injection, schedule: Q01DX009 (ip), vehicle: Klucel (hydroxypropylcellulose) (HPC), higher = longer survival): 102 % of control | T/C (endpoint: median survival time, dose: 80.0 mg/kg/injection, schedule: Q01DX009 (ip), vehicle: Klucel (hydroxypropylcellulose) (HPC), higher = longer survival): 113 % of control | T/C (endpoint: median survival time, dose: 160.0 mg/kg/injection, schedule: Q01DX009 (ip), vehicle: Klucel (hydroxypropylcellulose) (HPC), higher = longer survival): 102 % of control and 115 % of control | T/C (endpoint: median survival time, dose: 320.0 mg/kg/injection, schedule: Q01DX009 (ip), vehicle: Klucel (hydroxypropylcellulose) (HPC), higher = longer survival): 95 % of control

CO[C@H]1/C=C/O[C@@]2(C)Oc3c(C)c(O)c4c(O)c(c(/C=N/N5C(C)CN(Cc6ccccc6)CC5C)c(O)c4c3C2=O)NC(=O)/C(C)=C\C=C\[C@H](C)[C@H](O)[C@@H](C)[C@@H](O)[C@@H](C)[C@H](OC(C)=O)[C@@H]1C (stereo not given in full)
T/C (endpoint: median survival time, dose: 50.0 mg/kg/injection, schedule: Q02DX Z (oral), vehicle: Klucel (hydroxypropylcellulose) (HPC), higher = longer survival): 101 % of control | T/C (endpoint: median survival time, dose: 100.0 mg/kg/injection, schedule: Q02DX Z (oral), vehicle: Klucel (hydroxypropylcellulose) (HPC), higher = longer survival): 89 % of control | T/C (endpoint: median survival time, dose: 200.0 mg/kg/injection, schedule: Q02DX Z (oral), vehicle: Klucel (hydroxypropylcellulose) (HPC), higher = longer survival): 86 % of control

O=C1c2c(O)ccc(O)c2C(=O)c2c(NCCNCCO)ccc(NCCNCCO)c21
T/C (endpoint: median survival time, dose: 0.25 mg/kg/injection, schedule: Q01DX009 (ip), vehicle: other, higher = longer survival): 102 % of control | T/C (endpoint: median survival time, dose: 0.5 mg/kg/injection, schedule: Q01DX009 (ip), vehicle: other, higher = longer survival): 89 % of control | T/C (endpoint: median survival time, dose: 0.5 mg/kg/injection, schedule: Q01DX009 (ip), vehicle: saline with Tween-80, higher = longer survival): 120 % of control | T/C (endpoint: median survival time, dose: 1.0 mg/kg/injection, schedule: Q01DX009 (ip), vehicle: other, higher = longer survival): 106 % of control | T/C (endpoint: median survival time, dose: 2.0 mg/kg/injection, schedule: Q01DX009 (ip), vehicle: other, higher = longer survival): 90 % of control | T/C (endpoint: median survival time, dose: 2.0 mg/kg/injection, schedule: Q01DX009 (ip), vehicle: saline with Tween-80, higher = longer survival): 102 % of control and 123 % of control

COC(=O)c1csc(-c2csc(CCN)n2)n1
T/C (endpoint: median survival time, dose: 6.25 mg/kg/injection, schedule: Q01DX009 (ip), vehicle: water, higher = longer survival): 89 % of control | T/C (endpoint: median survival time, dose: 12.5 mg/kg/injection, schedule: Q01DX009 (ip), vehicle: water, higher = longer survival): 98 % of control | T/C (endpoint: median survival time, dose: 25.0 mg/kg/injection, schedule: Q01DX009 (ip), vehicle: water, higher = longer survival): 91 % of control | T/C (endpoint: median survival time, dose: 50.0 mg/kg/injection, schedule: Q01DX009 (ip), vehicle: water, higher = longer survival): 117 % of control | T/C (endpoint: median survival time, dose: 100.0 mg/kg/injection, schedule: Q01DX009 (ip), vehicle: water, higher = longer survival): 102 % of control

Cc1c(N)nc([C@H](CC(N)=O)NC[C@H](N)C(N)=O)nc1C(=O)N[C@H](C(=O)N[C@H](C)[C@@H](O)[C@H](C)C(=O)N[C@H](C(=O)NCCc1nc(-c2nc(C(=O)NCCC[S+](C)C)cs2)cs1)[C@@H](C)O)C(OC1OC(CO)C(O)C(O)C1OC1OC(CO)C(O)C(OC(N)=O)C1O)c1cnc[nH]1 (stereo not given in full)
T/C [1]: 120 % of control | T/C (endpoint: median survival time, dose: 2.0 mg/kg/injection, schedule: Q01DX009 (ip), vehicle: water, higher = longer survival): 152 % of control and 160 % of control | T/C (endpoint: median survival time, dose: 3.0 mg/kg/injection, schedule: Q01DX005 (ip), vehicle: water, higher = longer survival): 118 % of control | T/C (endpoint: median survival time, dose: 3.0 mg/kg/injection, schedule: Q01DX009 (ip), vehicle: saline, higher = longer survival): 119 % of control | T/C (endpoint: median survival time, dose: 3.0 mg/kg/injection, schedule: Q01DX009 (ip), vehicle: water, higher = longer survival): 96 % of control | T/C (endpoint: median survival time, dose: 3.12 mg/kg/injection, schedule: Q01DX009 (ip), vehicle: Klucel (hydroxypropylcellulose) (HPC), higher = longer survival): 171 % of control | T/C (endpoint: median survival time, dose: 4.0 mg/kg/injection, schedule: Q01DX009 (ip), vehicle: water, higher = longer survival): 165 % of control and 179 % of control | T/C (endpoint: median survival time, dose: 6.0 mg/kg/injection, schedule: Q01DX005 (ip), vehicle: water, higher = longer survival): 118 % of control | T/C (endpoint: median survival time, dose: 6.0 mg/kg/injection, schedule: Q01DX009 (ip), vehicle: saline, higher = longer survival): 121 % of control | T/C (endpoint: median survival time, dose: 6.0 mg/kg/injection, schedule: Q01DX009 (ip), vehicle: water, higher = longer survival): 109 % of control | T/C (endpoint: median survival time, dose: 6.25 mg/kg/injection, schedule: Q01DX009 (ip), vehicle: Klucel (hydroxypropylcellulose) (HPC), higher = longer survival): 175 % of control | T/C (endpoint: median survival time, dose: 8.0 mg/kg/injection, schedule: Q01DX009 (ip), vehicle: water, higher = longer survival): 162 % of control and 185 % of control | T/C (endpoint: median survival time, dose: 12.0 mg/kg/injection, schedule: Q01DX009 (ip), vehicle: water, higher = longer survival): 112 % of control | T/C (endpoint: median survival time, dose: 12.5 mg/kg/injection, schedule: Q01DX009 (ip), vehicle: Klucel (hydroxypropylcellulose) (HPC), higher = longer survival): 168 % of control | T/C (endpoint: median survival time, dose: 16.0 mg/kg/injection, schedule: Q01DX009 (ip), vehicle: water, higher = longer survival): 158 % of control (2×) and 159 % of control | T/C (endpoint: median survival time, dose: 16.0 mg/kg/injection, schedule: Q01DX010 (ip), vehicle: water, higher = longer survival): 93 % of control | T/C (endpoint: median survival time, dose: 20.0 mg/kg/injection, schedule: Q01DX009 (ip), vehicle: saline, higher = longer survival): 161 % of control | T/C (endpoint: median survival time, dose: 24.0 mg/kg/injection, schedule: Q01DX009 (ip), vehicle: saline, higher = longer survival): 112 % of control | T/C (endpoint: median survival time, dose: 25.0 mg/kg/injection, schedule: Q01DX009 (ip), vehicle: Klucel (hydroxypropylcellulose) (HPC), higher = longer survival): 100 % of control | T/C (endpoint: median survival time, dose: 32.0 mg/kg/injection, schedule: Q01DX009 (ip), vehicle: water, higher = longer survival): 171 % of control | T/C (endpoint: median tumor weight (est.), dose: 8.0 mg/kg/injection, schedule: Q01DX009 (ip), vehicle: water, higher = larger tumour): 47 % of control | T/C (endpoint: median tumor weight (est.), dose: 12.0 mg/kg/injection, schedule: Q01DX009 (ip), vehicle: saline, higher = larger tumour): 22 % of control and 43 % of control | T/C (endpoint: median tumor weight (est.), dose: 16.0 mg/kg/injection, schedule: Q01DX009 (ip), vehicle: water, higher = larger tumour): 33 % of control | T/C (endpoint: median tumor weight (est.), dose: 24.0 mg/kg/injection, schedule: Q01DX009 (ip), vehicle: saline, higher = larger tumour): 18 % of control and 27 % of control

O=c1cnn(C2OC(CO)C(O)C2O)c(=O)[nH]1 (stereo not given)
T/C (endpoint: median survival time, dose: 75.0 mg/kg/injection, schedule: Q01DX009 (ip), vehicle: saline, higher = longer survival): 117 % of control | T/C (endpoint: median survival time, dose: 150.0 mg/kg/injection, schedule: Q01DX009 (ip), vehicle: saline, higher = longer survival): 104 % of control | T/C (endpoint: median survival time, dose: 300.0 mg/kg/injection, schedule: Q01DX009 (ip), vehicle: saline, higher = longer survival): 90 % of control | T/C (endpoint: median survival time, dose: 600.0 mg/kg/injection, schedule: Q01DX009 (ip), vehicle: saline, higher = longer survival): 101 % of control

O=P1(NCCCl)OCCCN1CCCl (stereo not given)
T/C (endpoint: median survival time, dose: 300.0 mg/kg/injection, schedule: Q01DX001 (ip), vehicle: saline, higher = longer survival): 154 % of control | T/C (endpoint: median survival time, dose: 460.0 mg/kg/injection, schedule: Q01DX001 (ip), vehicle: saline, higher = longer survival): 150 % of control

Cc1[nH]nc(-c2ccon2)c1N=O
T/C (endpoint: median survival time, dose: 12.5 mg/kg/injection, schedule: Q01DX009 (ip), vehicle: saline with Tween-80, higher = longer survival): 91 % of control | T/C (endpoint: median survival time, dose: 25.0 mg/kg/injection, schedule: Q01DX009 (ip), vehicle: saline with Tween-80, higher = longer survival): 96 % of control | T/C (endpoint: median survival time, dose: 50.0 mg/kg/injection, schedule: Q01DX009 (ip), vehicle: saline with Tween-80, higher = longer survival): 100 % of control | T/C (endpoint: median survival time, dose: 100.0 mg/kg/injection, schedule: Q01DX009 (ip), vehicle: saline with Tween-80, higher = longer survival): 87 % of control

CCC(=O)OCC(=O)[C@]1(O)Cc2c(O)c3c(c(O)c2[C@@H](OC2CC(N)C(O)C(C)O2)C1)C(=O)c1c(OC)cccc1C3=O (stereo not given in full)
T/C (endpoint: median survival time, dose: 0.25 mg/kg/injection, schedule: Q01DX009 (ip), vehicle: saline, higher = longer survival): 90 % of control | T/C (endpoint: median survival time, dose: 0.5 mg/kg/injection, schedule: Q01DX009 (ip), vehicle: saline, higher = longer survival): 118 % of control | T/C [1]: 102 % of control

CCN(CC)CCNc1ccc(CO)c2sc3ccccc3c(=O)c12
T/C (endpoint: median survival time, dose: 34.0 mg/kg/injection, schedule: Q01DX005 (ip), vehicle: water, higher = longer survival): 105 % of control | T/C (endpoint: median tumor weight (est.), dose: 34.0 mg/kg/injection, schedule: Q01DX005 (ip), vehicle: water, higher = larger tumour): 55 % of control | T/C (endpoint: median tumor weight (est.), dose: 50.0 mg/kg/injection, schedule: Q01DX005 (ip), vehicle: water, higher = larger tumour): 72 % of control | T/C (endpoint: median tumor weight (est.), dose: 75.0 mg/kg/injection, schedule: Q01DX005 (ip), vehicle: water, higher = larger tumour): 28 % of control
